Measurements taken from ChEMBL document CHEMBL4385629, “Evaluation of quinoxaline compounds as ligands of a site adjacent to S2 (AS2) of cruzain” (Bioorg Med Chem Lett, 2019).
The source made the active and inactive calls. No cut-off for these calls is given here.

How the values were obtained:
[1] = target: Cruzipain (Trypanosoma cruzi) (UniProt P25779); assay: Inhibition of Trypanosoma cruzi cruzain assessed as reduction in 7-amino-4-methylcoumarin production using Z-FR-AMC as substrate and measured up to 60 mins by fluorescence based method
[2] = target: Cruzipain (Trypanosoma cruzi) (UniProt P25779); assay: Activation of Trypanosoma cruzi cruzain assessed as increase in enzyme activity using Z-FR-AMC as substrate at 0.1 mM incubated for 15 mins in dark and measured at 5 mins interval for 60 mins by fluorescence based method relative to control

Sequence of Cruzipain (Trypanosoma cruzi) (P25779 123-467 limits assumed): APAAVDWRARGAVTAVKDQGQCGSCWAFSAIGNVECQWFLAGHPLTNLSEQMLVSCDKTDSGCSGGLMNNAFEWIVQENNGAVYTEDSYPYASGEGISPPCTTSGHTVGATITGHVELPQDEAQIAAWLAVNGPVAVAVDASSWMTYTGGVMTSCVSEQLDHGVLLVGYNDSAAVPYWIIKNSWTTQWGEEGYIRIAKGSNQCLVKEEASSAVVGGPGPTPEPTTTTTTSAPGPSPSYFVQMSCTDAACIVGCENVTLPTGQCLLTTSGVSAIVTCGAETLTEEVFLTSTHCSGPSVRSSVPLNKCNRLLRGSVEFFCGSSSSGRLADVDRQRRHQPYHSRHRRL

Row | inhibition [1] | fold change (FC) [2] | Compound
1 | inactive | 3 | Oc1nc2ccccc2nc1O
2 | inactive | 15 | O=C1CNc2ccccc2N1
3 | inactive | 10 | O=C(O)CCc1nc2ccccc2[nH]c1=O
